Test results: patent US8455510B2
Like-named read-outs stand apart in the source and are kept apart here.

Legend:
[1] = system: normal mouse spleen T lymphocytes induced by ConA; test: 3H-TdR incorporation, ConA-induced T lymphocyte proliferation; format: cell-based, BALB/c mice; conditions: read-out: IC50, proliferation of T lymphocytes induced by ConA
Protocol: (§1) ^3H-thymidine incorporation was adopted to measure the effect of the in vitro administered compound on the proliferation function of the spleen lymphocytes of normal mice induced by a mixed culture of mitogen/allogeneic mouse spleen lymphocytes, and evaluate the in vitro immunosuppressive activity of the compound.
(§2) Measurement of the effects of compounds on the proliferation function of mouse spleen lymphocytes induced by mitogen by ^3H-TdR incorporation: 100 μl cell suspension of mouse spleen lymphocytes was inoculated on a 96-well plate (4×10^5 per well), followed by addition of 50 μl of ConA (final concentration: 5 μg/ml), 50 μl of LPS (final concentration: […]) or 50 μl of compound at different concentrations. The total volume of each well was 200 μl. The test was carried out in triplicate wells for each concentration, and included control wells without ConA/LPS or the compound. After the 96-well plate was placed in an incubator at 37° C. with 5% CO2 for 48 hours, 25 μl of ^3H-thymidine (10 μCi/ml) was added in each well 8 hours before the end of incubation. […] The amount of ^3H-TdR incorporated in cell DNA was determined by a Beta cell counter (MicroBeta Trilux, PerkinElmer), and the cell proliferation was represented as a cpm value.

[2] = system: human rhabdomyosarcoma RH-30 xenograft; test: RH-30 xenograft on nude mice; conditions: for TV (mm^3) d0: baseline;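 as to all read-outs here: male BALB/cA nude mice with subcutaneous RH-30 tumors, oral dosing versus solvent-fed controls, caliper tumor volume, RTV relative to grouping day, T/C as treated RTV over control RTV ×100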
From the text: Animals: BALB/cA nude mice, male, 40-45 days old, body weight: 21±2 g, provided by Shanghai Institute of Materia Medica, Chinese Academy of Sciences. License No.: SCXK (Shanghai) 2004-0002. Animal number in each group: 6 in negative control group, and 6 in administration group.
The amount of inoculated cells was 5×10^6. After the xenograft was formed by inoculation, it was used after passed for 3 generations in nude mice.

[3] = Immunosuppressive activity assay: cytotoxicity; format: cell-based
[4] = system: T Cells; test: Immunosuppressive activity assay: T cells inhibitory activity; format: cell-based; conditions: T-cell; Table 10
[5] = system: normal mouse spleen B lymphocytes induced by LPS; test: 3H-TdR incorporation, LPS-induced B lymphocyte proliferation; format: cell-based, BALB/c mice; conditions: read-out: IC50, proliferation of B lymphocytes induced by LPS
Protocol: as §1, §2

[6] = system: SRBC-induced specific antibody-producing cells in spleen lymphocytes; test: Quantitative hemolysis of sheep red blood cells (QHS) assay; format: in vivo, BALB/c mice; conditions: 1.5 mg/kg, intraperitoneal injection; for Quantitative hemolysis OD Value: model control 0.3887, normal control 0.3036
From the text: It is a classic experimental method to determine the generation of antigen-specific antibody with SRBC hemolytic reaction in SRBC-induced mouse humoral immunity model. The quantitative hemolysis of sheep red blood cells (QHS) assay is an experimental method for evaluating the amount of the antibody secreted, which is based on the principle that the sheep red blood cells are hemolyzed by the anti-SRBC specific antibody secreted by B lymphocytes (plasma cells) to release haemoglobin. After mice are sensitized by sheep red blood cells (SRBC), there will appear cells which can secrete specific antibody in mouse spleen lymphocytes. The Antibody secreted by such cells could hemolyze SRBC with the synergistic action of the complement. Therefore, the amount of the cells secreting the specific antibody can be evaluated by determining the hemolytic degree by spectrophotometry. […] BALB/c mice were randomly divided into 5 groups with 6 mice in each group. […] When immunized, the mice in each group were administered by intraperitoneal injection once daily until 5 days after the immunization. The mice in model control group were administered daily with the solvent. 2. […] Each mice was introperitoneally injected with 0.2 ml of the diluted SRBC for sensitizing. 3. QHS assay was carried out 5 days after the sensitization: The mouse spleen was collected to produce the spleen lymphocytes. […] The mixture was kept at 37° C. for 1 hour, and then centrifugated at 3000 rpm for 10 min. […] The quantitative hemolysis of sheep red blood cells (QHS) assay uses the amount of haemoglobin (OD value) released from the hemolysis of red blood cells by the antibody secreted by B cells to indicate the level of humoral immunity in body. Inhibition of specific antibody-secreting cells %=(OD of model control group-OD of administration group)/(OD of model control group-OD of normal control group)

[7] = MTT cytotoxicity on mouse spleen lymphocytes; format: cell-based, BALB/c mice; conditions: BALB/c, MTT assay
Protocol: 3-(4,5-dimethylthylthiazol-2-yl)-2,5-diphenyl tetrazolium bromide (MTT) assay was adopted to measure the effect of the in vitro administered compound on the activity of the spleen lymphocytes of normal mice, and evaluate the cytotoxicity of the compound.
They were dissolved in DMSO before testing to prepare a stock solution, which was diluted to a desired concentration with the medium when use.
100 μl cell suspension of mouse spleen lymphocytes was inoculated on a 96-well plate (4×10^5 per well), and the compound at different concentrations was added therein, including additional solvent control or medium background control, wherein, the total volume of each well was 200 μl. After the 96-well plate was placed in an incubator at 37° C. with 5% CO2 for 48 hours, 20 μl (5 mg/ml) of MTT solution was added 6 to 7 hours before the end of incubation. Then after the incubation was completed, 100 μl of supernatant was removed for each well, and 100 μl of […] was added therein. After the 96-well plate was placed in the incubator for 6 to 7 hours, OD values were determined on an ELISA Reader at the wavelength of 570 nm.

[8] = system: human osteosarcoma U2SO xenograft; test: U2SO xenograft on nude mice; conditions: 1-5/3 w; for TV (mm^3) d0: baseline
[9] = Table 2, 5 mg/kg p.o, 1-5 × 3 w
[10] = Table 2, 10 mg/kg p.o, 1-5 × 3 w
[11] = Table 10, read-out: Cytotoxicity CC50

Structure (SMILES): CO[C@H]1C[C@@H]2CC[C@@H](C)[C@@](O)(O2)C(=O)C(=O)N2CCCC[C@H]2C(=O)O[C@H]([C@H](C)C[C@@H]2CC[C@@H](O)[C@H](OC)C2)CC(=O)[C@H](C)/C=C(\C)[C@@H](O)[C@@H](OC)C(=O)[C@H](C)C[C@H](C)/C=C/C=C/C=C/1C [Rapamycin]
- IC50 [1]: 0.196 µM
- Body Weight (g) end [2, 9]: 27.0 g
- Body Weight (g) start [2, 9]: 23.7 g
- RTV [2, 9]: 5.5 ± 1.8
- T/C (%) [2, 9]: 61.8%
- TV (mm^3) d21 [2, 9]: 650 ± 326 mm^3
- TV (mm^3) d0 [2, 9]: 124 ± 65 mm^3
- Body Weight (g) end [2, 10]: 25.7 g
- Body Weight (g) start [2, 10]: 23.3 g
- RTV [2, 10]: 3.1 ± 0.7
- T/C (%) [2, 10]: 35.7%
- TV (mm^3) d0 [2, 10]: 136 ± 57 mm^3
- Body Weight (g) end ([2]; Table 4, 2.5 mg/kg po, 1-5/2 w): 21.8 g
- Body Weight (g) start ([2]; Table 4, 2.5 mg/kg po, 1-5/2 w): 20.2 g
- RTV ([2]; Table 4, 2.5 mg/kg po, 1-5/2 w): 2.8 ± 0.8
- T/C (%) ([2]; Table 4, 2.5 mg/kg po, 1-5/2 w): 63.7%
- TV (mm^3) d14 ([2]; Table 4, 2.5 mg/kg po, 1-5/2 w): 440 ± 157 mm^3
- TV (mm^3) d0 ([2]; Table 4, 2.5 mg/kg po, 1-5/2 w): 164 ± 67 mm^3
- Body Weight (g) end ([2]; Table 4, 5 mg/kg po, 1-5/2 w): 20.3 g
- Body Weight (g) start ([2]; Table 4, 5 mg/kg po, 1-5/2 w): 19.8 g
- RTV ([2]; Table 4, 5 mg/kg po, 1-5/2 w): 2.4 ± 1.0
- T/C (%) ([2]; Table 4, 5 mg/kg po, 1-5/2 w): 54.4%
- TV (mm^3) d14 ([2]; Table 4, 5 mg/kg po, 1-5/2 w): 362 ± 100 mm^3
- TV (mm^3) d0 ([2]; Table 4, 5 mg/kg po, 1-5/2 w): 159 ± 32 mm^3
- CC50 ([3]; Table 10, value beyond the >100 μM bound, read-out: Cytotoxicity CC50, value in brackets): 3600 µM
- CC50 [3, 11]: > 100 µM
- IC50 [4]: 4.2 µM
- IC50 [5]: 0.0488 µM
- Inhibition of Specific Antibody-secreting cells % [6]: 100%
- Quantitative hemolysis OD Value [6]: 0.3012
- CC50 at 48 h [7]: 45.5 µM
- Body Weight (g) end ([8]; Table 5, oral 2.5 mg/kg): 18.5 g
- Body Weight (g) start ([8]; Table 5, oral 2.5 mg/kg): 19.7 g
- RTV ([8]; Table 5, oral 2.5 mg/kg): 15 ± 5.1
- T/C (%) ([8]; Table 5, oral 2.5 mg/kg): 60.0%
- TV (mm^3) d21 ([8]; Table 5, oral 2.5 mg/kg): 1230 ± 344 mm^3
- TV (mm^3) d0 ([8]; Table 5, oral 2.5 mg/kg): 85 ± 24 mm^3
- Body Weight (g) end ([8]; Table 5, oral 5 mg/kg): 17.5 g
- Body Weight (g) start ([8]; Table 5, oral 5 mg/kg): 19.5 g
- RTV ([8]; Table 5, oral 5 mg/kg): 15 ± 3.4
- T/C (%) ([8]; Table 5, oral 5 mg/kg): 59.0%
- TV (mm^3) d0 ([8]; Table 5, oral 5 mg/kg): 86 ± 20 mm^3

Structure (SMILES): CO[C@H]1C[C@@H]2CC[C@@H](C)[C@@](O)(O2)C(=O)C(=O)N2CCCC[C@H]2C(=O)O[C@H]([C@H](C)C[C@@H]2CC[C@@H](OC(=O)OCC(O)CO)[C@H](OC)C2)CC(=O)[C@H](C)/C=C(\C)[C@@H](O)[C@@H](OC)C(=O)[C@H](C)C[C@H](C)/C=C/C=C/C=C/1C (some centres unmarked) [Y31]
- IC50 ([1]; ConA 5 μg/ml, 48 hours, 3H-TdR): 0.331 µM
- Body Weight (g) end ([2]; Table 4, 2.5 mg/kg po, 1-5/2 w): 21.2 g
- Body Weight (g) start ([2]; Table 4, 2.5 mg/kg po, 1-5/2 w): 19.2 g
- RTV ([2]; Table 4, 2.5 mg/kg po, 1-5/2 w): 1.6 ± 0.6
- T/C (%) ([2]; Table 4, 2.5 mg/kg po, 1-5/2 w): 37.1%
- TV (mm^3) d14 ([2]; Table 4, 2.5 mg/kg po, 1-5/2 w): 259 ± 130 mm^3
- TV (mm^3) d0 ([2]; Table 4, 2.5 mg/kg po, 1-5/2 w): 159 ± 36 mm^3
- Body Weight (g) end ([2]; Table 4, 5 mg/kg po, 1-5/2 w): 21.7 g
- Body Weight (g) start ([2]; Table 4, 5 mg/kg po, 1-5/2 w): 20.8 g
- RTV ([2]; Table 4, 5 mg/kg po, 1-5/2 w): 2.0 ± 0.5
- T/C (%) ([2]; Table 4, 5 mg/kg po, 1-5/2 w): 45.5%
- TV (mm^3) d14 ([2]; Table 4, 5 mg/kg po, 1-5/2 w): 316 ± 153 mm^3
- TV (mm^3) d0 ([2]; Table 4, 5 mg/kg po, 1-5/2 w): 160 ± 53 mm^3
- Safety Index CC50/IC50 ([3]; Table 10): 1860.0
- CC50 [3, 11]: 93 µM
- IC50 [4]: 0.05 µM
- IC50 ([5]; LPS, 48 hours, 3H-TdR): 0.0978 µM
- Inhibition of Specific Antibody-secreting cells % [6]: 93.03%
- Quantitative hemolysis OD Value [6]: 0.3095
- CC50 at 48 h [7]: 36.9 µM
- Body Weight (g) end ([8]; Table 5, oral 2.5 mg/kg): 20.2 g
- Body Weight (g) start ([8]; Table 5, oral 2.5 mg/kg): 18.5 g
- RTV ([8]; Table 5, oral 2.5 mg/kg): 12 ± 6.7
- T/C (%) ([8]; Table 5, oral 2.5 mg/kg): 49.0%
- TV (mm^3) d21 ([8]; Table 5, oral 2.5 mg/kg): 975 ± 235 mm^3
- TV (mm^3) d0 ([8]; Table 5, oral 2.5 mg/kg): 90 ± 27 mm^3
- Body Weight (g) end ([8]; Table 5, oral 5 mg/kg): 19.5 g
- Body Weight (g) start ([8]; Table 5, oral 5 mg/kg): 17.7 g
- RTV ([8]; Table 5, oral 5 mg/kg): 11 ± 7.2
- T/C (%) ([8]; Table 5, oral 5 mg/kg): 44.0%
- TV (mm^3) d21 ([8]; Table 5, oral 5 mg/kg): 967 ± 234 mm^3
- TV (mm^3) d0 ([8]; Table 5, oral 5 mg/kg): 89 ± 19 mm^3
